# Source: patent US8481539B2, “Alkynylaryl compounds and salts thereof, pharmaceutical compositions comprising same, methods of preparing same and uses of same” (Bayer Intellectual Property GmbH, priority 2007, dated 2013)
# Columns and labels:
# human VEGFR2 = molecular target: T1, human VEGFR2 (Homo sapiens, UniProt P35968); assay: VEGFR2 HTRF Assay (assay 5); format: biochemical; settings: pIC50 class; 10 μM ATP; read-out: Enzymatic VEGFR2 activity (assay 5)
# T1 construct: GST-tagged recombinant kinase domain of the human VEGFR2; GST; host or cells: SF-9 cells
# T1 sequence (P35968 834-1162 limits assumed): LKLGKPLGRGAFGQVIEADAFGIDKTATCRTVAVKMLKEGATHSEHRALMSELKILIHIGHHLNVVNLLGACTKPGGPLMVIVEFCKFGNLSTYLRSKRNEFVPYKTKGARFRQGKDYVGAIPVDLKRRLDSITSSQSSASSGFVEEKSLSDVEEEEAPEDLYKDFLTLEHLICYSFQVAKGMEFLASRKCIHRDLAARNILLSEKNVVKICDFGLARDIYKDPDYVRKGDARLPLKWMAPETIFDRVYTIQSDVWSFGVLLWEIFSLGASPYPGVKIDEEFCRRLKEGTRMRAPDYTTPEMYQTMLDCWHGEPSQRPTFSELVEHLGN
# Description: Assay 5: VEGFR2 HTRF Assay
# VEGFR2 inhibitory activity of compounds of the present invention was quantified employing the VEGFR2 HTRF assay as described in the following paragraphs.
# GST-tagged recombinant kinase domain of the human VEGFR2 expressed in SF-9 cells was used as kinase. As substrate for the kinase reaction the biotinylated peptide biotin-Ahx-DFGLARDMYDKEYYSVG (C-terminus in acid form) was used which can be purchased e.g. form the company Biosynthan GmbH (Berlin-Buch, Germany). VEGFR2 was incubated for 45 min at 22° C. in the presence of different concentrations of test compounds in 5 μl assay buffer [50 mM Hepes/NaOH pH 7.0, 25 mM MgCl2, 5 mM MnCl2, 1.0 mM dithiothreitol, 0.1 mM sodium ortho-vanadate, 10 μM adenosine-tri-phosphate (ATP), 0.5 μM substrate, 0.001% (v/v) Nonidet-P40 (Sigma), 1% (v/v) dimethylsulfoxide]. The concentration of VEGFR2 was adjusted depending of the activity of the enzyme lot and was chosen appropriate to have the assay in the linear range. The reaction was stopped by the addition of 5 μl of a solution of HTRF detection reagents (0.1 μM streptavidine-XLent and 2 nM PT66-Eu-Chelate, an europium-chelate labelled anti-phospho-tyrosine antibody from Perkin Elmer) in an aqueous EDTA-solution (125 mM EDTA, 0.2% (w/v) bovine serum albumin in 50 mM HEPES/NaOH pH 7.0).
# (§1) The resulting mixture was incubated for 1 h at 22° C. to allow the binding of the biotinylated phosphorylated peptide to the streptavidine-XLent and the PT66-Eu-Chelate. Subsequently the amount of phosphorylated substrate was evaluated by measurement of the resonance energy transfer from the PT66-Eu-Chelate to the streptavidine-XLent. Therefore, the fluorescence emissions at 620 nm and 665 nm after excitation at 350 nm was measured in a HTRF reader, e.g. a Rubystar (BMG Labtechnologies, Offenburg, Germany) or a Viewlux (Perkin-Elmer). The ratio of the emissions at 665 nm and at […] was taken as the measure for the amount of phosphorylated substrate. The data were normalized (enzyme reaction without inhibitor=0% inhibition, all other assay components but no enzyme=100% inhibition) and IC50 values were calculated by a 4 parameter fit using an inhouse software.
# human Trk-A = molecular target: T2, human Trk-A (Homo sapiens, UniProt P04629); assay: TrkA HTRF Assay (assay 7); format: biochemical; settings: pIC50 class; 10 μM ATP; read-out: Enzymatic TrkA activity (assay 7)
# T2 construct: C-terminal fragment of human Trk-A (amino acids G443-G796); GST; His; purchased Proqinase [Freiburg i.Brsg., Germany]; host or cells: insect cells [SF9]
# T2 sequence (P04629 443-796): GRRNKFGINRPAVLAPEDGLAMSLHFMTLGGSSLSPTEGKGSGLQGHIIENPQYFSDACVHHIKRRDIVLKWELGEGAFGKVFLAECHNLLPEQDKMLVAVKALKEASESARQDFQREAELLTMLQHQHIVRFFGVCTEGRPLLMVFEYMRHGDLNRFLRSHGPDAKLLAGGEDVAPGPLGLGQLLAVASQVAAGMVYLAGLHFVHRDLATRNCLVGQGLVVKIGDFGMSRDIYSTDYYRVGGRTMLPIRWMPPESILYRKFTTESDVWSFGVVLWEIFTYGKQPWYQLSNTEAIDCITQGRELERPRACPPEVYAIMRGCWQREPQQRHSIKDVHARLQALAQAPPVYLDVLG
# Description: Trk-A inhibitory activity of compounds of the present invention was quantified employing the Trk-A HTRF assay as described in the following paragraphs.
# As kinase, a GST-His fusion protein containing a C-terminal fragment of human Trk-A (amino acids G443-G796, expressed in insect cells [SF9] and purified by affinity chromatography, purchased from Proqinase [Freiburg i.Brsg., Germany] was used. As substrate for the kinase reaction the biotinylated poly-Glu, Tyr (4:1) copolymer (#61GT0BLA) from Cis Biointernational (Marcoule, France) was used. For the assay 50 nl of a 100 fold concentrated solution of the test compound in DMSO was pipetted into a black low volume 384 well microtiter plate (Greiner Bio-One, Frickenhausen, Germany), 2 μl of a solution of TrkA in aqueous assay buffer [8 mM MOPS/NaOH pH 7.0, 10 mM Mg(OAc)2, 1 mM dithiothreitol, 0.01% (v/v) NP-40 (Fluka), 0.2 mM EDTA] were added and the mixture was incubated for 15 min at 22° C. to allow pre-binding of the test compounds to the enzyme before the start of the kinase reaction. Then the kinase reaction was started by the addition of 3 μl of a solution of adenosine-tri-phosphate (ATP, 16.7 μM=>final conc. in the 5 μl assay volume is 10 μM) and substrate (2.27 μg/ml=>final conc. in the 5 μl assay volume is 1.36 μg/ml [˜30 nM]) in assay buffer and the resulting mixture was incubated for a reaction time of 60 min at 22° C. The concentration of Trk-A in the assay was adjusted depending of the activity of the enzyme lot and was chosen appropriate to have the assay in the linear range, typical enzyme concentrations were in the range of about 60 pg/μl (final conc. in the 5 μl assay volume). The reaction was stopped by the addition of 5 μl of a solution of HTRF detection reagents (200 nM streptavidine-XLent [Cis Biointernational] and 1.4 nM PT66-Eu-Chelate, an europium-chelate labelled anti-phospho-tyrosine antibody from Perkin Elmer) in an aqueous EDTA-solution (100 mM EDTA, 0.2% (w/v) bovine serum albumin in 50 mM HEPES/NaOH pH 7.5).
# as §1, with “incubated” for “incubated for”, “normalised” for “normalized”, “inhibition).” for “inhibition) and IC50 values were calculated by a 4 parameter fit using an inhouse software.”
Structure (SMILES),IC50 (human VEGFR2) [µM],IC50 (human Trk-A) [µM]
"Cn1ncc2c(C#Cc3cc(NC(=O)c4cccc(C(F)(F)F)c4)ccc3F)cncc21 [Example 1.9, N-[4-Fluoro-3-(1-methyl-1H-pyrazolo[3,4-c]pyridin-4-ylethynyl)-phenyl]-3-trifluoromethyl-benzamide]",< 1,≥ 10
"Cn1ncc2c(C#Cc3cccc(NC(=O)Nc4ccccc4)c3)cncc21 [Example 2.1, 1-[3-(1-Methyl-1H-pyrazolo[3,4-c]pyridin-4-ylethynyl)-phenyl]-3-phenyl-urea]",< 1,≥ 10
"Cn1ncc2c(C#Cc3cccc(NC(=O)c4cccc(C(F)(F)F)c4)c3)cncc21 [Example 1.5, N-[3-(1-Methyl-1H-pyrazolo[3,4-c]pyridin-4-ylethynyl)-phenyl]-3-trifluoromethyl-benzamide]",< 1,≥ 10
"Cc1ccc(NC(=O)c2cccc(C(F)(F)F)c2)cc1C#Cc1cncc2c1cnn2C [Example 1.6, N-[4-Methyl-3-(1-methyl-1H-pyrazolo[3,4-c]pyridin-4-ylethynyl)-phenyl]-3-trifluoromethyl-benzamide]",< 1,≥ 10
"Cc1ccc(NC(=O)Nc2cccc(C(F)(F)F)c2)cc1C#Cc1cncc2c1cnn2C [Example 2.4, 1-[4-Methyl-3-(1-methyl-1H-pyrazolo[3,4-c]pyridin-4-ylethynyl)-phenyl]-3-(3-trifluoromethyl-phenyl)-urea]",< 1,≥ 10
